Experiment [1] concerns the target T1, BRD4 (Homo sapiens (Human), UniProt O60885). As to the kind of experiment: BRD4 degradation assay in EoL-1 cells. Particulars: for Dmax: EOL1, 4 hours, complete loss = −100%, read-out: Sinf (maximum degradation, percent change in protein level). In kind it is cell-based. The method, then: 2 μL of each sample from the serial dilution was transferred to 98 μL of assay media as an intermediate dilution. 5 μL of each well of the intermediate dilution was added to 45 μL of cell plate. Columns 1, 2, 23 and 24 were treated with only 0.2% final concentration of DMSO for data normalization as “neutral controls”. After compound treatment, cell plates were stored in a 37° C. incubator for 4 hours.
The cell plate was incubated at room temperature for 20 minutes. Well contents were aspirated and washed with 100 μL/well PBS 3 times. 50 μL/well of PBS (pH7.5) containing 0.5% w/v bovine serum albumen, 0.5% w/v Triton X-100 (Block/Permeabilzation Buffer) was added to each well. Samples were incubated for 20 minutes. Well contents were aspirated and washed 3 times with 100 μL/well of PBS. PBS was aspirated from the well and 50 μL per well of EoL-1 Block Buffer (PBS containing 10% Normal Goat Serum (Abcam #ab7481)) was added to each well. Plates were incubated at room temperature for 30 minutes. Block buffer was decanted from the wells.
25 μL per well of BRD4 antibody diluted in buffer was added and incubated overnight at 4° C. On day-2 samples were washed 3 times with 100 μL/well of PBS. […] Samples were incubated for 2 hours at room temperature. Samples were washed 3 times with 100 μL PBS.
(§1) Quantitative fluorescence imaging of BRD4 was carried out using an Opera Phenix High-Content Screening System. […] Hoechst channel was used to identify nuclear region. […] Data analysis was carried out using Genedata Screener, with DMSO and no primary antibody control treated samples being used to define the 0% and 100% changes in BRD4. The dose-response log(inhibitor) vs. response was used to define the inflexion point of curve (IC50) and the plateau of the maximal effect. The Sinf value reports degradation as percent change in protein level, so complete loss of the protein target is −100%. Sinf is the maximum degradation achieved, obtained by determining the bottom of a dose-response (where the S-shaped curve levels out).

The test system of another experiment is MYC expression. Put plainly: Myc mRNA assay in MV-4-11 cells. In kind it is cell-based. The note with it: for Maximum Inhibition (%) (mean) of MYC expression: 4 hours, QuantiGene 2.0; for IC50: Homo sapiens, MV4-11, 4 hours, QuantiGene 2.0, read-out: Inhibition of MYC expression Average IC50. The method, then: Pharmacologic inhibition of MYC is achievable through targeting BET bromodomains through small molecule binder or degrader mechanisms.
Test compounds diluted in DMSO were transferred to the cell plates, keeping final DMSO concentration consistent at 0.1%, and incubated for 4 hours at 37° C. […] Luminescence was read using an EnVision plate reader (PerkinElmer) and IC50s generated in Genedata Screener using a 4-parameter non-linear regression fit.

In experiment [2] the target is T1, BRD4. As to the kind of experiment: BRD4 degradation assay in PC3-Steap1 cells. The experiment is classed as cell-based. The note with it: for Dmax: complete loss = −100%, read-out: Sinf (maximum degradation, percent change in protein level). As for the experimental part: 2 μL of each sample from the serial dilution was transferred to 98 μL of assay media as an intermediate dilution. 5 μL of intermediate dilution was added to 45 μL of cell plate. Columns 1, 2, 23 and 24 were treated with only 0.2% w/v final concentration of DMSO for data normalization as “neutral controls”. After compound treatment, cell plates were stored in a 37° C. incubator for 4 hours.
Cell plate was incubated at room temperature for 20 minutes. Well contents were aspirated and washed with 100 μL/well PBS 3 times. 50 μL/well of PBS containing 0.5% w/v bovine serum albumen, 0.5% w/v Triton X-100 (Antibody Dilution Buffer) was added to each well. Samples were incubated for 30 minutes. Well contents were aspirated and washed 3 times with 100 μL/well of PBS. PBS was aspirated from the wells.
25 μL per well of BRD4 antibody diluted in buffer was added and incubated overnight at 4° C. On day-3 samples were washed 3 times with 100 μL/well of PBS. […] Samples were incubated for 2 hours at room temperature. Samples were washed 3 times with 100 μL PBS.
as §1, with “The […]” for “The Sinf”

For the next experiment, the target named is BRD4_BD1 bromodomain (Homo sapiens (Human), UniProt O60885). As to the kind of experiment: BRD4 BD1 biochemical binding assay (TR-FRET). Particulars: displacement of biotinylated ligand Compound C. The method, then: (§2) The following assay was used to measure the IC50 for the test compounds ability to bind to the BRD4_BD1 and BRD4_BD2 bromodomains.
(§3) DMSO was backfilled to a final volume of 30 nL as required. […] 1× Assay Buffer was dispensed (5 μL per well) into Minimum Signal control wells. 5 μL of Solution A-3× was dispensed into test wells and Maximum Signal control wells (containing DMSO instead of test compound). Samples were incubated 10 minutes at room temperature. 5 μL of Solution B-3x was dispensed into all wells. Samples were incubated incubate for 10 minutes at room temperature. 5 μL of Solution C-3x was dispensed into all wells. Samples were incubated 40 minutes at room temperature. Plates were read using an Envision (Perkin Elmer) with the following settings: Detection—LANCE Dual Laser 50/200. […] Percentage inhibition was calculated relative to the Minimum Signal control and Maximum Signal control wells. IC50 values were derived by four parameter curve fitting using the Robust method.

Another experiment has as its target BRD4_BD2 bromodomain (Homo sapiens (Human), UniProt O60885). Put plainly: BRD4 BD2 biochemical binding assay (TR-FRET). The note with it: displacement of biotinylated ligand Compound C. The method, then: as §2, §3
For orientation: Time-resolved FRET reads energy transfer from a long-lived donor to a nearby acceptor.

Setting [3] is: read-out: Degradation of BRD4 Average EC50, 4 hours, immunofluorescence.
The mark [4] stands for this setting: 4 hours, immunofluorescence, read-out: Degradation of BRD4 Average EC50.

The source of these data is patent publication US20250084096A1, “TERT-BUTYL (S)-2-(4-(PHENYL)-6H-THIENO[3, 2-F][1, 2, 4]TRIAZOLO[4, 3-A] [1,4]DIAZEPIN-6-YL) ACETATE DERIVATIVES AND RELATED COMPOUNDS AS BROMODOMAIN BRD4 INHIBITORS FOR TREATING CANCER” (Genentech, Inc., priority 2018, published 2025).

With `CC#Cc1ccc(C2=N[C@@H](CC(=O)OC(C)(C)C)c3nnc(C)n3-c3sc(C)c(C)c32)cc1` [Compound 14a, tert-butyl (S)-2-(2,3,9-trimethyl-4-(4-(prop-1-yn-1-yl)phenyl)-6H-thieno[3,2-f][1,2,4]triazolo[4,3-a][1,4]diazepin-6-yl)acetate], the DC50 on BRD4 [1] (setting [3]) and at BRD4 [2] (setting [3]) was more than 20000 nM in each case. Moreover, in the experiment with MYC expression, the “Maximum Inhibition (%) (mean) of MYC expression” value (shortened to “Maximum Inhibition (%) (mean)”) was 73.6%. Also, the values for the half-inhibitory concentration (IC50) in the experiment with MYC expression, on BRD4_BD1 bromodomain and at BRD4_BD2 bromodomain were 97.2 nM, 18.8 nM and 20.3 nM, respectively.

With `CCC#Cc1ccc(C2=N[C@@H](CC(=O)OC(C)(C)C)c3nnc(C)n3-c3sc(C)c(C)c32)cc1` [Compound 13a, tert-butyl (S)-2-(4-(4-(but-1-yn-1-yl)phenyl)-2,3,9-trimethyl-6H-thieno[3,2-f][1,2,4]triazolo[4,3-a][1,4]diazepin-6-yl)acetate], the DC50 on BRD4 [1] (setting [3]) and at BRD4 [2] (setting [3]) was more than 20000 nM in each case. Further, the “Maximum Inhibition (%) (mean)” value in the experiment on MYC expression amounted to 71.6%. The half-maximal inhibitory concentration (IC50) (in general, the concentration that gives 50% inhibition) in the experiment on MYC expression turned out to be 162 nM; at BRD4_BD1 bromodomain, 23.4 nM; at BRD4_BD2 bromodomain it was 28.7 nM.

Regarding `Cc1sc2c(c1C)C(c1ccc(C#CCN)cc1)=N[C@@H](CC(=O)OC(C)(C)C)c1nnc(C)n1-2` [Compound 1a, tert-butyl (S)-2-(4-(4-(3-aminoprop-1-yn-1-yl)phenyl)-2,3,9-trimethyl-6H-thieno[3,2-f][1,2,4]triazolo[4,3-a][1,4]diazepin-6-yl)acetate], the values for the DC50 at BRD4 [1] (setting [4]) and at BRD4 [2] (setting [4]) were 1.3 nM and 1.4 nM, respectively. For the same compound, the Dmax at BRD4 [1] was -83.8%; on BRD4 [2] (4 hours), -84.6%. In the experiment on MYC expression, the “Maximum Inhibition (%) (mean)” value turned out to be 89.1%. Further, the IC50 in the experiment on MYC expression was determined as 2.9 nM; at BRD4_BD1 bromodomain, 15.5 nM; at BRD4_BD2 bromodomain, 12.3 nM.

Turning to `Cc1sc2c(c1C)C(c1ccc(C#CCN(C)C)cc1)=N[C@@H](CC(=O)OC(C)(C)C)c1nnc(C)n1-2` [Compound 3a, tert-butyl (S)-2-(4-(4-(3-(dimethylamino)prop-1-yn-1-yl)phenyl)-2,3,9-trimethyl-6H-thieno[3,2-f][1,2,4]triazolo[4,3-a][1,4]diazepin-6-yl)acetate], the DC50 on BRD4 [1] (setting [4]) and at BRD4 [2] (setting [4]) was more than 20000 nM in each case. Further, the “Maximum Inhibition (%) (mean)” value in the experiment on MYC expression worked out at 78.7%. For the same compound, the half-inhibitory concentration (IC50) was determined as 11.7 nM in the experiment on MYC expression, 14.5 nM at BRD4_BD1 bromodomain and 20.7 nM on BRD4_BD2 bromodomain. Also, at BRD4 [2] (4 hours), the Dmax was -41.9%.

As for `CC(=O)NCC#Cc1ccc(C2=N[C@@H](CC(=O)OC(C)(C)C)c3nnc(C)n3-c3sc(C)c(C)c32)cc1` [Compound 10a, tert-butyl (S)-2-(4-(4-(3-acetamidoprop-1-yn-1-yl)phenyl)-2,3,9-trimethyl-6H-thieno[3,2-f][1,2,4]triazolo[4,3-a][1,4]diazepin-6-yl)acetate], the DC50 on BRD4 [1] (setting [4]) and at BRD4 [2] (setting [4]) was more than 20000 nM each time. Besides, in the experiment on MYC expression, the “Maximum Inhibition (%) (mean)” value worked out at 79.3%. For the same compound, the results for the IC50 with MYC expression, at BRD4_BD1 bromodomain and on BRD4_BD2 bromodomain were 7.1 nM, 6.6 nM and 10.7 nM, respectively.

Regarding `Cc1sc2c(c1C)C(c1ccc(C#CCN)cc1)=N[C@H](CC(=O)OC(C)(C)C)c1nnc(C)n1-2` [Compound 1b, tert-butyl (R)-2-(4-(4-(3-aminoprop-1-yn-1-yl)phenyl)-2,3,9-trimethyl-6H-thieno[3,2-f][1,2,4]triazolo[4,3-a][1,4]diazepin-6-yl)acetate], the DC50 at BRD4 [1] (setting [4]) is 9 nM; on BRD4 [2] (setting [4]), 10.5 nM. Further, the Dmax is -87% on BRD4 [1] and -74.5% at BRD4 [2] (4 hours). In addition, the “Maximum Inhibition (%) (mean)” value in the experiment on MYC expression came to 86.6%. Also, the figures for the half-maximal inhibitory concentration (IC50) in the experiment with MYC expression, on BRD4_BD1 bromodomain and on BRD4_BD2 bromodomain were 67.5 nM, 199 nM and 272 nM, respectively.
